Reference: patent US20230044602A1, “CANCER SIGNATURES, METHODS OF GENERATING CANCER SIGNATURES, AND USES THEREOF” (EDWARD VIA COLLEGE OF OSTEOPATHIC MEDICINE, priority 2019, published 2023)

Tests used:
[1] = system: NSCLC and GBM; conditions: Refs. 83-85; cited from earlier work
[2] = system: GBM patients; assay: Disease-free survival of PGS-stratified TCGA GBM patients treated with or without TMZ; format: in vivo, human; conditions: TCGA training cohort
Protocol: Clinical data on adjuvant chemotherapy (ACT) or TMZ administration for the TOGA training cohorts were retrieved from the NCI GDC data portal, and the Buffa hypoxia scores for each patient were retrieved from TOGA PanCancer Atlas through cBioPortal (Ref. 54). Differences in patient benefit from treatment across risk groups were assessed using one-tailed two-sample t-tests on unequal variances and Fisher's Exact Tests. Two-tailed two-sample t-tests on unequal variances assessed the correlation of PGS risk stratification with tumor hypoxia in NSCLC.

[3] = Refs. 3 and 11; cited from earlier work

Row | Structure (SMILES) | efficacy in treating NSCLC and GBM [1] | average DFS time ([2]; high-risk progression GBM patients (GBM-PGS) treated with TMZ) [months] | average DFS time ([2]; low-risk progression GBM patients (GBM-PGS) treated with TMZ) [months] | penetration through the blood-brain barrier [3]
1 | Cc1cc(Nc2nc(N[C@@H](C)c3ncc(F)cn3)ncc2Cl)n[nH]1 [AZD1480] | promising efficacy |  |  | 
2 | NS(=O)(=O)c1cccc2c1C(=O)c1cccc(O)c1C2=O [LLL12] | promising efficacy |  |  | 
3 | Cn1nnc2c(C(N)=O)ncn2c1=O [TMZ, Temozolomide] |  | 10.80 | 16.52 | efficient penetration
